# Assay results taken from patent US8758816B2, “Compositions comprising azelastine and methods of use thereof” (priority 2004, dated 2014).
# Structures can show the parent of a compound that is named as a salt.
# Tested on: patients with seasonal allergic rhinitis (SAR)
# Experiment: MP 428 study: individual symptom severity scores (runny nose, itchy nose, sneezing, congestion; 0-3 scale)
# Format: in vivo, human
# Conditions: Intent-to-Treat Population
# Description: A two-week, randomized, double-blind study, which evaluated the effects of the co-administration of ASTELIN® (azelastine hydrochloride (HCl)) and FLONASE® (fluticasone propionate) compared to either product alone in patients with seasonal allergic rhinitis (SAR) was conducted during the 2006 Texas mountain cedar season. After a 5-day placebo lead-in period, 151 patients with moderate-to-severe allergic rhinitis symptoms were randomized to either: (1) (49 total patients) ASTELIN® (azelastine hydrochloride (HCl)) plus placebo saline nasal spray 2 sprays per nostril, 15 minutes apart, twice daily (AM & PM); (2) (50 total patients) FLONASE® (fluticasone propionate) plus placebo saline nasal spray, 2 sprays per nostril, 15 minutes apart, once daily (AM) and two sessions of placebo saline nasal spray, 2 sprays per nostril, 15 minutes apart (PM); or (3) (52 total patients) the co-administration of ASTELIN® (azelastine hydrochloride (HCl)) 2 sprays per nostril plus FLONASE® (fluticasone propionate) 2 sprays per nostril (AM), 15 minutes apart, and ASTELIN® (azelastine hydrochloride (HCl)) 2 sprays per nostril plus placebo saline nasal spray, 15 minutes apart, (PM) for a 2-week double-blind treatment period.
# The primary efficacy variable was the change from baseline in the Total Nasal Symptom Score (TNSS), which comprised sneezing, itchy nose, runny nose, and nasal congestion (individual symptoms scores were assigned a value between 0 and 3, where 0=no symptoms and 3=severe symptoms). This study was not statistically designed to assess the differences between ASTELIN® and FLONASE®.
# The results of the clinical trial are summarized and presented in Appendix A hereinbelow and in FIGS. 1-6. […] FIGS. 2-5 show the mean improvement in severity score (0-3 scale) from baseline for the symptoms of runny nose, itchy nose, sneezing and congestion, respectively.
compound,measurement,setting,value
"CN1CCCC(n2nc(Cc3ccc(Cl)cc3)c3ccccc3c2=O)CC1 (racemic) [Azelastine, (±)-1-(2H)-phthalazinone, 4-[(4-chlorophenyl)methyl]-2-(hexahydro-1-methyl-1H-azepin-4-yl)-, mono-hydrochloride]","Percent Change from Baseline in AM and PM Combined Nasal Symptom Score: Congestion, LS Mean",Day 12,−21.71%
same,"Percent Change from Baseline in AM and PM Combined Nasal Symptom Score: Congestion, Mean",Day 12,−22.63%
same,"Percent Change from Baseline in AM and PM Combined Nasal Symptom Score: Congestion, Median",Day 12,−16.67%
same,"Percent Change from Baseline in AM and PM Combined Nasal Symptom Score: Itchy Nose, LS Mean",Day 12,−29.11%
same,"Percent Change from Baseline in AM and PM Combined Nasal Symptom Score: Itchy Nose, Mean",Day 12,−28.74%
same,"Percent Change from Baseline in AM and PM Combined Nasal Symptom Score: Itchy Nose, Median",Day 12,−16.67%
same,"Percent Change from Baseline in AM and PM Combined Nasal Symptom Score: Runny Nose, LS Mean",Day 12,−22.75%
same,"Percent Change from Baseline in AM and PM Combined Nasal Symptom Score: Runny Nose, Mean",Day 12,−23.43%
same,"Percent Change from Baseline in AM and PM Combined Nasal Symptom Score: Runny Nose, Median",Day 12,−8.40%
same,"Percent Change from Baseline in AM and PM Combined Nasal Symptom Score: Sneezing, LS Mean",Day 12,−34.92%
same,"Percent Change from Baseline in AM and PM Combined Nasal Symptom Score: Sneezing, Mean",Day 12,−34.06%
same,"Percent Change from Baseline in AM and PM Combined Nasal Symptom Score: Sneezing, Median",Day 12,−33.33%
same,"Change from Baseline in AM and PM Combined Nasal Symptom Score: Congestion, LS Mean",Day 13,−1.25
same,"Change from Baseline in AM and PM Combined Nasal Symptom Score: Congestion, Mean",Day 13,−1.29
same,"Change from Baseline in AM and PM Combined Nasal Symptom Score: Congestion, Median",Day 13,−1.00
same,"Change from Baseline in AM and PM Combined Nasal Symptom Score: Itchy Nose, LS Mean",Day 13,−1.44
same,"Change from Baseline in AM and PM Combined Nasal Symptom Score: Itchy Nose, Mean",Day 13,−1.43
same,"Change from Baseline in AM and PM Combined Nasal Symptom Score: Itchy Nose, Median",Day 13,−1.15
same,"Change from Baseline in AM and PM Combined Nasal Symptom Score: Runny Nose, LS Mean",Day 13,−1.36
same,"Change from Baseline in AM and PM Combined Nasal Symptom Score: Runny Nose, Mean",Day 13,−1.38
same,"Change from Baseline in AM and PM Combined Nasal Symptom Score: Runny Nose, Median",Day 13,−1.07
same,"Change from Baseline in AM and PM Combined Nasal Symptom Score: Sneezing, LS Mean",Day 13,−1.60
same,"Change from Baseline in AM and PM Combined Nasal Symptom Score: Sneezing, Mean",Day 13,−1.60
same,"Change from Baseline in AM and PM Combined Nasal Symptom Score: Sneezing, Median",Day 13,−1.75
same,"Percent Change from Baseline in AM and PM Combined Nasal Symptom Score: Congestion, LS Mean",Day 13,−22.44%
same,"Percent Change from Baseline in AM and PM Combined Nasal Symptom Score: Congestion, Mean",Day 13,−23.01%
same,"Percent Change from Baseline in AM and PM Combined Nasal Symptom Score: Congestion, Median",Day 13,−18.64%
same,"Percent Change from Baseline in AM and PM Combined Nasal Symptom Score: Itchy Nose, LS Mean",Day 13,−32.25%
same,"Percent Change from Baseline in AM and PM Combined Nasal Symptom Score: Itchy Nose, Mean",Day 13,−31.63%
same,"Percent Change from Baseline in AM and PM Combined Nasal Symptom Score: Itchy Nose, Median",Day 13,−22.33%
same,"Percent Change from Baseline in AM and PM Combined Nasal Symptom Score: Runny Nose, LS Mean",Day 13,−27.36%
same,"Percent Change from Baseline in AM and PM Combined Nasal Symptom Score: Runny Nose, Mean",Day 13,−27.57%
same,"Percent Change from Baseline in AM and PM Combined Nasal Symptom Score: Runny Nose, Median",Day 13,−24.05%
same,"Percent Change from Baseline in AM and PM Combined Nasal Symptom Score: Sneezing, LS Mean",Day 13,−35.90%
same,"Percent Change from Baseline in AM and PM Combined Nasal Symptom Score: Sneezing, Mean",Day 13,−35.28%
same,"Percent Change from Baseline in AM and PM Combined Nasal Symptom Score: Sneezing, Median",Day 13,−30.43%
same,"Change from Baseline in AM and PM Combined Nasal Symptom Score: Congestion, LS Mean",Day 14,−1.33
same,"Change from Baseline in AM and PM Combined Nasal Symptom Score: Congestion, Mean",Day 14,−1.39
same,"Change from Baseline in AM and PM Combined Nasal Symptom Score: Congestion, Median",Day 14,−1.05
same,"Change from Baseline in AM and PM Combined Nasal Symptom Score: Itchy Nose, LS Mean",Day 14,−1.39
same,"Change from Baseline in AM and PM Combined Nasal Symptom Score: Itchy Nose, Mean",Day 14,−1.39
same,"Change from Baseline in AM and PM Combined Nasal Symptom Score: Itchy Nose, Median",Day 14,−1.15
same,"Change from Baseline in AM and PM Combined Nasal Symptom Score: Runny Nose, LS Mean",Day 14,−1.32
same,"Change from Baseline in AM and PM Combined Nasal Symptom Score: Runny Nose, Mean",Day 14,−1.34
same,"Change from Baseline in AM and PM Combined Nasal Symptom Score: Runny Nose, Median",Day 14,−1.43
same,"Change from Baseline in AM and PM Combined Nasal Symptom Score: Sneezing, LS Mean",Day 14,−1.51
same,"Change from Baseline in AM and PM Combined Nasal Symptom Score: Sneezing, Mean",Day 14,−1.50
same,"Change from Baseline in AM and PM Combined Nasal Symptom Score: Sneezing, Median",Day 14,−1.35
same,"Percent Change from Baseline in AM and PM Combined Nasal Symptom Score: Congestion, LS Mean",Day 14,−23.87%
same,"Percent Change from Baseline in AM and PM Combined Nasal Symptom Score: Congestion, Mean",Day 14,−24.78%
same,"Percent Change from Baseline in AM and PM Combined Nasal Symptom Score: Congestion, Median",Day 14,−20.79%
same,"Percent Change from Baseline in AM and PM Combined Nasal Symptom Score: Itchy Nose, LS Mean",Day 14,−31.60%
same,"Percent Change from Baseline in AM and PM Combined Nasal Symptom Score: Itchy Nose, Mean",Day 14,−31.14%
same,"Percent Change from Baseline in AM and PM Combined Nasal Symptom Score: Itchy Nose, Median",Day 14,−25.00%
same,"Percent Change from Baseline in AM and PM Combined Nasal Symptom Score: Runny Nose, LS Mean",Day 14,−25.17%
same,"Percent Change from Baseline in AM and PM Combined Nasal Symptom Score: Runny Nose, Mean",Day 14,−25.22%
same,"Percent Change from Baseline in AM and PM Combined Nasal Symptom Score: Runny Nose, Median",Day 14,−29.41%
same,"Percent Change from Baseline in AM and PM Combined Nasal Symptom Score: Sneezing, LS Mean",Day 14,−30.86%
same,"Percent Change from Baseline in AM and PM Combined Nasal Symptom Score: Sneezing, Mean",Day 14,−29.95%
same,"Percent Change from Baseline in AM and PM Combined Nasal Symptom Score: Sneezing, Median",Day 14,−27.93%
same,"Change from Baseline in AM and PM Combined Nasal Symptom Score: Congestion, LS Mean",Overall (Day 2 to Day 14),−1.08
same,"Change from Baseline in AM and PM Combined Nasal Symptom Score: Congestion, Mean",Overall (Day 2 to Day 14),−1.12
same,"Change from Baseline in AM and PM Combined Nasal Symptom Score: Congestion, Median",Overall (Day 2 to Day 14),−0.77
same,"Change from Baseline in AM and PM Combined Nasal Symptom Score: Itchy Nose, LS Mean",Overall (Day 2 to Day 14),−1.14
same,"Change from Baseline in AM and PM Combined Nasal Symptom Score: Itchy Nose, Mean",Overall (Day 2 to Day 14),−1.16
same,"Change from Baseline in AM and PM Combined Nasal Symptom Score: Itchy Nose, Median",Overall (Day 2 to Day 14),−0.98
same,"Change from Baseline in AM and PM Combined Nasal Symptom Score: Runny Nose, LS Mean",Overall (Day 2 to Day 14),−1.06
same,"Change from Baseline in AM and PM Combined Nasal Symptom Score: Runny Nose, Mean",Overall (Day 2 to Day 14),−1.08
same,"Change from Baseline in AM and PM Combined Nasal Symptom Score: Runny Nose, Median",Overall (Day 2 to Day 14),−0.67
same,"Change from Baseline in AM and PM Combined Nasal Symptom Score: Sneezing, LS Mean",Overall (Day 2 to Day 14),−1.48
same,"Change from Baseline in AM and PM Combined Nasal Symptom Score: Sneezing, Mean",Overall (Day 2 to Day 14),−1.49
same,"Change from Baseline in AM and PM Combined Nasal Symptom Score: Sneezing, Median",Overall (Day 2 to Day 14),−1.31
same,"Percent Change from Baseline in AM and PM Combined Nasal Symptom Score: Congestion, LS Mean",Overall (Day 2 to Day 14),−19.23%
same,"Percent Change from Baseline in AM and PM Combined Nasal Symptom Score: Congestion, Mean",Overall (Day 2 to Day 14),−19.82%
same,"Percent Change from Baseline in AM and PM Combined Nasal Symptom Score: Congestion, Median",Overall (Day 2 to Day 14),−12.82%
same,"Percent Change from Baseline in AM and PM Combined Nasal Symptom Score: Itchy Nose, LS Mean",Overall (Day 2 to Day 14),−25.36%
same,"Percent Change from Baseline in AM and PM Combined Nasal Symptom Score: Itchy Nose, Mean",Overall (Day 2 to Day 14),−25.53%
same,"Percent Change from Baseline in AM and PM Combined Nasal Symptom Score: Itchy Nose, Median",Overall (Day 2 to Day 14),−19.66%
same,"Percent Change from Baseline in AM and PM Combined Nasal Symptom Score: Runny Nose, LS Mean",Overall (Day 2 to Day 14),−20.47%
same,"Percent Change from Baseline in AM and PM Combined Nasal Symptom Score: Runny Nose, Mean",Overall (Day 2 to Day 14),−21.06%
same,"Percent Change from Baseline in AM and PM Combined Nasal Symptom Score: Runny Nose, Median",Overall (Day 2 to Day 14),−15.44%
same,"Percent Change from Baseline in AM and PM Combined Nasal Symptom Score: Sneezing, LS Mean",Overall (Day 2 to Day 14),−34.20%
same,"Percent Change from Baseline in AM and PM Combined Nasal Symptom Score: Sneezing, Mean",Overall (Day 2 to Day 14),−33.98%
same,"Percent Change from Baseline in AM and PM Combined Nasal Symptom Score: Sneezing, Median",Overall (Day 2 to Day 14),−33.20%
